Legend:
PI3 Kinase = assay: PI3K fluorescence polarization assay; type: biochemical; conditions: 25 μM ATP, diC8-PI(4,5)P2 substrate, 1 hour at 25° C.; read-out: PI3 Kinase Median IC50
Description: Nunc 384 well black polypropylene fluorescent plates are used for PI3K assays. Reactions are quenched by the addition of EDTA to a final concentration of 10 mM. Final reaction volumes are 10 μl. […] Reactions are allowed to proceed for one hour at 25° C. After 1 hour, GST-tagged GRP1 (general receptor for phosphoinositides) PH domain fusion protein is added to a final concentration of 100 nM, and BODIPY-TMRI(1,3,4,5)P4 (Echelon) is also added to a final concentration of 5 nM. Final sample volumes are 25 μl with a final DMSO concentration of 0.8%. Assay Plates are read on Perkin-Elmer Envision plate readers with appropriate filters for Tamra [BODIPY-TMRI(1,3,4,5)P4].

human TOR = molecular target: T1, human TOR (Homo sapiens, UniProt P42345); assay: mTOR enzyme assay (DELFIA format, purified FLAG-TOR, His6-S6K substrate); type: biochemical; conditions: 100 μM ATP, 1.25 μM His6-S6K, 2 hours at room temperature; read-out: TOR Kinase Median IC50
T1 construct: FLAG

Compound | IC50 (PI3 Kinase) | IC50 (human TOR)
OCc1cccc(-c2nc(N3CCOCC3)c3ncn(CC4CCN(Cc5ccccc5)CC4)c3n2)c1 [Compound 29, (3-(9-((1-benzylpiperidin-4-yl)methyl)-6-morpholino-9H-purin-2-yl)phenyl)methanol] | 243 nM | 10500 nM
O=Cc1cncc(-c2nc(N3CCOCC3)c3ncn(C4CCN(Cc5ccccc5)CC4)c3n2)c1 [Compound 34, 5-[9-(1-benzylpiperidin-4-yl)-6-morpholin-4-yl-9H-purin-2-yl]nicotinaldehyde] | 77 nM | 170 nM
OCc1cncc(-c2nc(N3CCOCC3)c3ncn(C4CCN(Cc5ccccc5)CC4)c3n2)c1 [Compound 35, {5-[9-(1-benzylpiperidin-4-yl)-6-morpholin-4-yl-9H-purin-2-yl]pyridin-3-yl}methanol] | 63 nM | 1000 nM
Oc1cncc(-c2nc(N3CCOCC3)c3ncn(C4CCNCC4)c3n2)c1 [Compound 36, 5-(6-morpholin-4-yl-9-piperidin-4-yl-9H-purin-2-yl)pyridin-3-ol] | 14 nM | 970 nM
Cc1ccc(CN2CCC(n3cnc4c(N5CCOCC5)nc(-c5cncc(O)c5)nc43)CC2)s1 [Compound 37, 5-(9-{1-[(5-methyl-2-thienyl)methyl]piperidin-4-yl}-6-morpholin-4-yl-9H-purin-2-yl)pyridin-3-ol] | 26 nM | 140 nM
Oc1cncc(-c2nc(N3CCOCC3)c3ncn(C4CCN(Cc5ccc[nH]5)CC4)c3n2)c1 [Compound 39, 5-{6-morpholin-4-yl-9-[1-(1H-pyrrol-2-ylmethyl)piperidin-4-yl]-9H-purin-2-yl}pyridin-3-ol] | 31 nM | 940 nM
Oc1cncc(-c2nc(N3CCOCC3)c3ncn(C4CCN(Cc5ccc(F)nc5)CC4)c3n2)c1 [Compound 41, 5-{9-[1-(6-fluoro-pyridin-3-ylmethyl)-piperidin-4-yl]-6-morpholin-4-yl-9H-purin-2-yl}-pyridin-3-ol] | 94 nM | 570 nM
COc1cncc(-c2nc(N3CCOCC3)c3nc[nH]c3n2)c1 [Compound 42, 2-(5-methoxypyridin-3-yl)-6-morpholin-4-yl-9H-purine] | 598 nM | 3000 nM
Oc1cncc(-c2nc(N3CCOCC3)c3nc[nH]c3n2)c1 [Compound 43, 5-(6-morpholin-4-yl-9H-purin-2-yl)pyridin-3-ol] | 11 nM | 620 nM
OCc1cccc(-c2nc(N3CCOCC3)c3ncn(C4CCN(Cc5ccccc5F)CC4)c3n2)c1 [Compound 45, (3-{9-[1-(2-fluorobenzyl)piperidin-4-yl]-6-morpholin-4-yl-9H-purin-2-yl}phenyl)methanol] | 42 nM | 160 nM
OCc1cccc(-c2nc(N3CCOCC3)c3ncn(C4CCN(Cc5ccc(F)cc5)CC4)c3n2)c1 [Compound 46, (3-{9-[1-(4-fluorobenzyl)piperidin-4-yl]-6-morpholin-4-yl-9H-purin-2-yl}phenyl)methanol] | 70 nM | 1700 nM
CCCCN1CCC(n2cnc3c(N4CCOCC4)nc(-c4cccc(CO)c4)nc32)CC1 [Compound 48] | 96 nM | 4200 nM
OCc1cccc(-c2nc(N3CCOCC3)c3ncn(C4CCN(Cc5ccc(F)cc5F)CC4)c3n2)c1 [Compound 49, (3-{9-[1-(2,4-difluorobenzyl)piperidin-4-yl]-6-morpholin-4-yl-9H-purin-2-yl}phenyl)methanol] | 44 nM | 2050 nM
OCc1cccc(-c2nc(N3CCOCC3)c3ncn(C4CCN(Cc5cccc(F)c5)CC4)c3n2)c1 [Compound 50, (3-{9-[1-(3-fluorobenzyl)piperidin-4-yl]-6-morpholin-4-yl-9H-purin-2-yl}phenyl)methanol] | 94 nM | 1400 nM
OCc1cccc(-c2nc(N3CCOCC3)c3ncn(C4CCN(Cc5ccco5)CC4)c3n2)c1 [Compound 52, (3-{9-[1-(2-furylmethyl)piperidin-4-yl]-6-morpholin-4-yl-9H-purin-2-yl}phenyl)methanol] | 46 nM | 490 nM
CC(C)(C)OC(=O)N1CCC(n2cnc3c(N4CCOCC4)nc(-c4cccc(O)c4)nc32)CC1 [Compound 57, tert-butyl 4-{2-(3-hydroxyphenyl)-6-morpholino-9H-purin-9-yl}piperidine-1-carboxylate] | 288 nM | 270 nM
COCOc1cncc(-c2nc(N3CCOCC3)c3ncn(C4CCN(C(=O)OC(C)(C)C)CC4)c3n2)c1 [Compound 58, tert-butyl-4-{2-[5-(methoxymethoxy)pyridin-3-yl]-6-morpholin-4-yl-9H-purin-9-yl}piperidine-1-carboxylate] | 2090 nM | > 4000 nM

Compound | IC50 (PI3 Kinase) | IC50 (human TOR)
CC(C)(C)OC(=O)N1CCC(n2cnc3c(N4CCOCC4)nc(-c4cccc(CO)c4)nc32)CC1 [Compound 59, tert-butyl 4-{2-[3-(hydroxymethyl)phenyl]-6-morpholin-4-yl-9H-purin-9-yl}piperidine-1-carboxylate] | 95 nM | 1400 nM
OCc1cccc(-c2nc(N3CCOCC3)c3ncn(C4CCN(Cc5c(F)cc(F)cc5F)CC4)c3n2)c1 [Compound 60, (3-{6-morpholin-4-yl-9-[1-(2,4,6-trifluorobenzyl)piperidin-4-yl]-9H-purin-2-yl}phenyl)methanol] | 194 nM | 3300 nM
OCc1cccc(-c2nc(N3CCOCC3)c3ncn(C4CCN(Cc5ccc(F)nc5)CC4)c3n2)c1 [Compound 61, [3-(9-{1-[(6-fluoropyridin-3-yl)methyl]piperidin-4-yl}-6-morpholin-4-yl-9H-purin-2-yl)phenyl]methanol] | 47 nM | 710 nM
OCc1cccc(-c2nc(N3CCOCC3)c3ncn(C4CCN(Cc5ccc(F)c(F)c5)CC4)c3n2)c1 [Compound 62, (3-{9-[1-(3,4-difluorobenzyl)piperidin-4-yl]-6-morpholin-4-yl-9H-purin-2-yl}phenyl)methanol] | 42 nM | 1200 nM
OCc1cccc(-c2nc(N3CCOCC3)c3ncn(C4CCN(Cc5ccc(Cl)nc5)CC4)c3n2)c1 [Compound 63, [3-(9-{1-[(6-chloropyridin-3-yl)methyl]piperidin-4-yl}-6-morpholin-4-yl-9H-purin-2-yl)phenyl]methanol] | 45 nM | 650 nM
COc1ccc(CN2CCC(n3cnc4c(N5CCOCC5)nc(-c5cccc(CO)c5)nc43)CC2)cn1 [Compound 64, [3-(9-{1-[(6-methoxypyridin-3-yl)methyl]piperidin-4-yl}-6-morpholin-4-yl-9H-purin-2-yl)phenyl]methanol] | 168 nM | > 4000 nM
OCc1cccc(-c2nc(N3CCOCC3)c3ncn(C4CCN(Cc5cncc(F)c5)CC4)c3n2)c1 [Compound 66, [3-(9-{1-[(5-fluoropyridin-3-yl)methyl]piperidin-4-yl}-6-morpholin-4-yl-9H-purin-2-yl)phenyl]methanol] | 177 nM | > 4000 nM
Cc1ccc(CN2CCC(n3cnc4c(N5CCOCC5)nc(-c5cccc(CO)c5)nc43)CC2)s1 [Compound 67, [3-(9-{1-[(5-methyl-2-thienyl)methyl]piperidin-4-yl}-6-morpholin-4-yl-9H-purin-2-yl)phenyl]methanol] | 518 nM | > 4000 nM
OCc1cccc(-c2nc(N3CCOCC3)c3ncn(C4CCN(Cc5ccc[nH]5)CC4)c3n2)c1 [Compound 68, (3-{6-morpholin-4-yl-9-[1-(1H-pyrrol-2-ylmethyl)piperidin-4-yl]-9H-purin-2-yl}phenyl)methanol] | 37 nM | 2500 nM
OCc1cccc(-c2nc(N3CCOCC3)c3ncn(C4CCN(Cc5ccc(F)cc5Cl)CC4)c3n2)c1 [Compound 69, (3-{9-[1-(2-chloro-4-fluorobenzyl)piperidin-4-yl]-6-morpholin-4-yl-9H-purin-2-yl}phenyl)methanol] | 77 nM | 1550 nM
OCc1cccc(-c2nc(N3CCOCC3)c3ncn(C4CCN(Cc5ncc[nH]5)CC4)c3n2)c1 [Compound 70, (3-{9-[1-(1H-imidazol-2-ylmethyl)piperidin-4-yl]-6-morpholin-4-yl-9H-purin-2-yl}phenyl)methanol] | 152 nM | 1500 nM
OCc1cccc(-c2nc(N3CCOCC3)c3ncn(C4CCN(Cc5cccc(Br)n5)CC4)c3n2)c1 [Compound 71, [3-(9-{1-[(6-bromopyridin-2-yl)methyl]piperidin-4-yl}-6-morpholin-4-yl-9H-purin-2-yl)phenyl]methanol] | 50 nM | 580 nM
OCc1cccc(-c2nc(N3CCOCC3)c3ncn(C4CCN(Cc5cccc(N6CCOCC6)n5)CC4)c3n2)c1 [Compound 72, [3-(6-morpholin-4-yl-9-{1-[(6-morpholin-4-ylpyridin-2-yl)methyl]piperidin-4-yl}-9H-purin-2-yl)phenyl]methanol] | 99 nM | 1800 nM
OCc1cccc(-c2nc(N3CCOCC3)c3ncn(C4CCN(Cc5c[nH]c6ccc(F)cc56)CC4)c3n2)c1 [Compound 73, [3-(9-{1-[(5-fluoro-1H-indol-3-yl)methyl]piperidin-4-yl}-6-morpholin-4-yl-9H-purin-2-yl)phenyl]methanol] | 30 nM | 1300 nM
OCc1cccc(-c2nc(N3CCOCC3)c3ncn(C4CCN(Cc5cnc6n5CCOC6)CC4)c3n2)c1 [Compound 74, (3-{9-[1-(5,6-dihydro-8H-imidazo[2,1-c][1,4]oxazin-3-ylmethyl)piperidin-4-yl]-6-morpholin-4-yl-9H-purin-2-yl}phenyl)methanol] | 94 nM | 2000 nM
CN(C)CCCOc1ccc(CN2CCC(n3cnc4c(N5CCOCC5)nc(-c5cccc(CO)c5)nc43)CC2)cc1 [Compound 75] | 16 nM | > 4000 nM
Oc1cccc(-c2nc(N3CCOCC3)c3ncn(C4CCN(Cc5ccccn5)CC4)c3n2)c1 [Compound 77, 3-{6-morpholin-4-yl-9-[1-(pyridin-2-ylmethyl)piperidin-4-yl]-9H-purin-2-yl}phenol] | 156 nM | 290 nM

— US20080233127A1, “IMIDAZOLOPYRIMIDINE ANALOGS AND THEIR USE AS PI3 KINASE AND MTOR INHIBITORS” (Wyeth, priority 2007, published 2008)
